In series [1] the test system is F. tularensis LVS.
The test system of series [2] is F. tularensis LVS. This is another data set of the same source.
In series [3] the test system is F. tularensis tularensis SchuS4.
For series [4] the test system is unchanged. The source holds these as a separate data set.
Series [5] deals with F. tularensis LVS. The following applies: mouse, in vivo.
The test system of series [6] is F. tularensis LVS. The following applies: mouse, in vivo; cited from earlier work.
The test system of another series is G. mellonella larvae. The following applies: in vivo.
For series [7], the system named is A549 human lung epithelial cells.
The test system of the next series is F. tularensis LVS LPS. It is filed as binding, Francisella tularensis subsp. holarctica.
In another series the test system is E. coli LPS. It is filed as binding.
Series [8] has as its system F. tularensis LVS. Also on record: species or system Galleria mellonella. The following applies: in vivo.
The subject of series [9] is F. tularensis LVS. It counts as cell-based, Francisella tularensis subsp. holarctica.
Series [10] relates to F. tularensis LVS. It is filed as cell-based, Francisella tularensis subsp. holarctica. This is another data set of the same source.

Values after ≈ are worked out from the molar mass of the structure shown. “Also recorded” adds a separate entry of the source. Where two headings read alike, the source gives them in different places. Ends that are not written are not given here.

Regarding NPKTRNWFSEHFKKVKEKLKDTFA [GATR-4], in the series on F. tularensis LVS [1], the “MIC / inhibitory activity in broth” value was “inactive”. Moreover, in the series on F. tularensis NIH B38, the “EC50 [μM]” value was “Not active”. Moreover, in the series on F. tularensis LVS [2] (3 h), a half-maximal effect (EC50) was put at 3700 nM and the “EC50 (95% CI)” value amounted to 11.0 µg/mL.
Turning to KTRNWFSQHFKKVKQKLKNTFA [GATR-2], the “MIC / inhibitory activity in broth” value against F. tularensis LVS [1] was “inactive”. In addition, the “EC50 (95% CI) [μg/ml]” value in the series with F. tularensis NIH B38 is given as 11 (7.7-15) μg/ml; in the series with F. tularensis LVS [2] it was 2.4 (1.5-3.7) μg/ml. The values for the EC50 with F. tularensis NIH B38 (3 h) and with F. tularensis LVS [2] (3 h) were 3900 nM and 860 nM, respectively.
On the same counts, the results for KFRNWFSEHFKKFKEKLKDTFA [GATR-1] are “inactive”, 16 (9.5-27) μg/ml, 0.76 (0.54-1.1) μg/ml, 5620 nM and 260 nM.
Turning to “FSTKTRNWFSEHFKKVKEKLKDTFA [Apo5, reference compound]”, the “EC50 (95% CI)” value is approximately 16 µg/mL with F. tularensis NIH B38 (3 h) and approximately 6 µg/mL in the series with F. tularensis LVS [2] (3 h).
Take KFRNWFSQHFKKFKQKLKNTFA [GATR-3]: the minimal inhibitory concentration (MIC) (usually the lowest concentration that inhibits growth of the organism) in series [3] was more than 83.3 µg/mL. Moreover, the concentration for a half-maximal effect (EC50) (commonly the concentration needed to bring the measured effect to its halfway point) stood at 10000 nM in series [4], 280 nM in the series on F. tularensis NIH B38 (3 h) and 190 nM in the series with F. tularensis LVS [2] (3 h).
With `CC[C@H](C)[C@H](NC(=O)[C@H](CCCCN)NC(=O)[C@H](CCC(=O)O)NC(=O)[C@H](CCCCN)NC(=O)[C@H](CO)NC(=O)[C@H](CCCCN)NC(=O)[C@H](CCCNC(=N)N)NC(=O)[C@H](Cc1ccccc1)NC(=O)[C@H](Cc1ccccc1)NC(=O)[C@H](CC(=O)O)NC(=O)CNC(=O)[C@H](CC(C)C)NC(=O)[C@@H](N)CC(C)C)C(=O)NCC(=O)N[C@@H](CCCCN)C(=O)N[C@@H](CCC(=O)O)C(=O)N[C@@H](Cc1ccccc1)C(=O)N[C@@H](CCCCN)C(=O)N[C@@H](CCCNC(=N)N)C(=O)N[C@H](C(=O)N[C@H](C(=O)N[C@@H](CCC(N)=O)C(=O)N[C@@H](CCCNC(=N)N)C(=O)N[C@H](C(=O)N[C@@H](CCCCN)C(=O)N[C@@H](CC(=O)O)C(=O)N[C@@H](Cc1ccccc1)C(=O)N[C@@H](CC(C)C)C(=O)N[C@@H](CCCNC(=N)N)C(=O)N[C@@H](CC(N)=O)C(=O)N[C@@H](CC(C)C)C(=O)N[C@H](C(=O)N1CCC[C@H]1C(=O)N[C@@H](CCCNC(=N)N)C(=O)N[C@H](C(=O)N[C@@H](CCC(=O)O)C(=O)N[C@@H](CO)C(=O)O)[C@@H](C)O)C(C)C)[C@@H](C)CC)C(C)C)[C@@H](C)CC` [LL-37], the concentration giving a half-maximal response (EC50) turned out to be 125 nM in series [4], 28 nM in the series on F. tularensis NIH B38 (3 h) and 47 nM in the series with F. tularensis LVS [2] (3 h). The figures for the “EC50 (95% CI) [μg/ml]” value (in series [4]; in the series on F. tularensis NIH B38; with F. tularensis LVS [2]) were 0.562 (0.195 to 1.61) μg/ml, 0.13 (0.076-0.21) μg/ml and 0.21 (0.14-0.31) μg/ml, respectively. Besides, in the series with F. tularensis LVS [2], the “EC50 (95% CI)” value was 0.209 µg/mL (≈ 0.0465 µM). The “severity of signs of disease (health scores)” value with F. tularensis LVS [5] was “nor did these peptides lessen signs of disease”. Besides, the “mean time till death and survival” value with F. tularensis LVS [6] was “extended mean time till death but did not increase survival; also recorded: significantly extended mean time to death, but did not ultimately rescue any mice”.
Regarding KFRNWFSQHWKKWKQKLKNTWA [GATR-5], the “survival of larvae (toxicity)” value with G. mellonella larvae came to 30%. Further, the values for the half-maximal effective concentration (EC50) in the series on F. tularensis NIH B38 (3 h) and with F. tularensis LVS [2] (3 h) were 650 nM and 260 nM, respectively.
Take RWRNWWSQRWRRWRQRLRNTWA [GATR-7]: the minimum inhibitory concentration (MIC) in series [3] was 41.7 µg/mL. The “death of larvae (toxicity)” value in the series on G. mellonella larvae is given as “not found to have significant death”. Further, the figures for the half-maximal effective concentration (EC50) (in series [4]; in the series with F. tularensis NIH B38 (3 h); in the series on F. tularensis LVS [2] (3 h)) were 7470 nM, 530 nM and 320 nM, respectively. Moreover, the “suppression of cell proliferation” value in series [7] is given as “some statistically significant suppression of cell proliferation”. For the same compound, in the series on F. tularensis LVS [1] (41.5 μg/ml), the inhibition – broadly, the percentage by which the read-out fell short of the control – stood at 85%.
With KFRNWFSQHWRRWRQRLRNTWA [GATR-6], in series [3], the “MIC” value was more than 83.3 µg/mL. The EC50 in [4] turned out to be 10400 nM; in the series with F. tularensis NIH B38 (3 h), 51 nM; in the series on F. tularensis LVS [2] (3 h), 290 nM. The “mean time till death (MTD)” value with F. tularensis LVS [5] is on record as 6 days.
As to KTRNWFSEHFKKVKEKLKDTFA [Apo6], in series [4], the “EC50 [μM]” value was “Not active”. Besides, the LPS binding result is on record as “does not significantly bind” with F. tularensis LVS LPS and “did not bind” in the series with E. coli LPS. For the same compound, the “MIC / inhibitory activity in broth” value with F. tularensis LVS [1] was “no observable MIC”. Besides, the “EC50 (95% CI)” value with F. tularensis NIH B38 is 16.3 µg/mL; in the series with F. tularensis NIH B38 (3 h), approximately 16 µg/mL; in the series with F. tularensis LVS [2], 6.82 µg/mL; in the series with F. tularensis LVS [2] (3 h) it was approximately 6 µg/mL. Further, the entries for the “EC50 (95% CI) [μg/ml]” value in the series with F. tularensis NIH B38 and with F. tularensis LVS [2] were 16 (8.6-31) μg/ml and 6.8 (5.9-7.8) μg/ml, respectively. For the same compound, the EC50 in the series with F. tularensis NIH B38 (3 h) was 5890 nM; in the series with F. tularensis LVS [2] (3 h), 2500 nM. Moreover, in the series on F. tularensis LVS [8], the “survival of infected larvae” value was 60%. Moreover, in the series on F. tularensis LVS [9], the “dissipation of membrane potential” value is on record as “dissipated the membrane potential”. Besides, in the series on F. tularensis LVS [5], the “efficacy in murine studies” value is listed as “not reliably effective”. Also, the “pore formation (change in RFU)” value in the series on F. tularensis LVS [10] is on record as “significant pore formation; also recorded: significant membrane disruption”.

The values are drawn from patent publication US11180528B2 (priority 2018, dated 2021).
